Experimental data from article PMC7851572, “A Pichia biosensor for high‐throughput analyses of compounds that can influence mosquito behavior” (MicrobiologyOpen, 2020).

Target: T1, olfactory receptor co-receptor (Orco) (Anopheles gambiae, UniProt Q7QCC7)
T1 construct: codon-optimized Orco cDNA in pPICZA (C-terminal c-myc tag detected), expressed in Pichia pastoris GS115
T1 sequence (Q7QCC7 1-478): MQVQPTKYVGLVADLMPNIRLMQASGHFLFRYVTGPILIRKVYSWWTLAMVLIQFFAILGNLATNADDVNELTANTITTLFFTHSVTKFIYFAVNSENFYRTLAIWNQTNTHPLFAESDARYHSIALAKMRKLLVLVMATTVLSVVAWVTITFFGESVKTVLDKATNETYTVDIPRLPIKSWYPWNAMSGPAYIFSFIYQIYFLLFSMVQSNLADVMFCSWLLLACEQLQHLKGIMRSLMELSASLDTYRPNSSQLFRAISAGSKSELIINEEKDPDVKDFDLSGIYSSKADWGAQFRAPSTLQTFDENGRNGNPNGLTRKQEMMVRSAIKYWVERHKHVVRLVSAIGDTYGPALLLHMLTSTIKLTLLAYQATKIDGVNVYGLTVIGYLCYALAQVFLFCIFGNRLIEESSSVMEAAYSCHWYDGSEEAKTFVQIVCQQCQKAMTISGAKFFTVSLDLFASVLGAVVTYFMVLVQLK
Assay: fluo-4-AM calcium influx assay in Pichia pastoris expressing Orco, compared with GS115 control cells ([…] extracellular Ca2+)
Format: cell-based

CCc1ccc(NC(=O)CSc2nnc(-c3cccnc3)n2CC)cc1 [VUAA1, 2‐(4‐ethyl‐5‐(pyridin‐3‐yl)‐4H‐1,2,4‐triazol‐3‐ylthio)‐N‐(4‐ethylphenyl)acetamide]
EC50: 410 µM
